This note sets out measurements from patent US12115182B2, “Adenosine A2A agonists for the treatment of cytokine storm syndrome” (priority 2021, dated 2024).

The test system of this data set is lung transplant recipients. The data set can be described thus: Regadenoson infusion in lung transplant recipients: clinical outcomes, hemodynamics, safety. The format is in vivo. The method, then: The rational for dose selection was published in our previous publication (LAU et al., J Heart Lung Transplant, (2020), 39:563-570. We enrolled 4 additional lung transplantation patients that were treated with regadenoson at 1.44 ug/kg/hour for 12 hours. Our previous publication, infusion of regadenoson (1.44 ug/kg/hour for 12 hours) was safe in 10 lung transplantation patients. In the lung transplantation population, the median peak plasma levels of regadenoson infused were 1.68 ng/ml (range 1.2 to 1.9 ng/ml). Based on this preliminary result, we modified our protocol to a high dose infusion at the 2.88 ug/kg/hour for 12 hours in the last three lung transplantation recipients. FDA, NIH/NHLBI designated DSMB and institutional IRB approved our modification. The regadenoson infusion started at the time of skin incision, continued throughout the transplant procedure and into the immediate postoperative period for a total duration of 12 hours. Enrollment of bilateral lung transplant control patients
Primary end-points included dose-limiting toxicities and 30-day mortality. Secondary outcomes included PGD scores evaluated at 24, 48, and 72 hours, ICU length of stay, hospital length of stay, need for post-transplant extracorporeal membrane oxygenation, duration of mechanical ventilation post-operatively, and 12-month survival. Clinical parameters including blood pressure, heart rate, mean arterial pressure, pulmonary arterial pressure, were monitored and collected. Continuous variables are listed as mean and standard deviation, whereas categorical variables are presented as counts.
Statistical differences of cytokine/chemokines, heart rates and blood pressures between groups were determined by two-way ANOVA followed by Tukey's multiple comparison test (GraphPad Prism 9.0). The PGD scores were analyzed by chi-squared test. The intubation times and hospital LOS, ICU LOS were analyzed by ANOVA of log and Kruskal-Wallis. Data was reported as means±SD. P value equal or less than 0.05 was considered significant.

`CNC(=O)c1cnn(-c2nc(N)c3ncn([C@@H]4O[C@H](CO)[C@@H](O)[C@H]4O)c3n2)c1` [Regadenoson]: for the setting “1.44 ug/kg/h vs control patients, p=0.024”, the “PGD scores at 24 hours post transplantation” value is given as “significantly improved”. In addition, for the setting “14 low dose-treated (1.44 ug/kg/h) and 3 high dose-treated (2.88 ug/kg/h) recipients”, the “drug related serious adverse events or dose limiting toxicities” value is “no drug related serious adverse events or dose limiting toxicities were observed”. For the same compound, the “PGD scores at 24 hours, 48 and 72 hours” value (both 1.44 and 2.88 ug/kg/h groups vs control patients) is given as “also improved when compared with control patients but did not reach significance”. The “blood pressure, heart rate, mean arterial pressure and pulmonary arterial pressure” value (during regadenoson infusion for 12 hours, P>0.05) is reported as “did not significantly alter”. Also, the seizure result (one subject, may not directly relate to regadenoson infusion) is recorded as “A seizure was observed at the 36 hours post regadenoson infusion in one of the subjects”. Where the note is “vs control patients”, the “hospital length of stay (LOS) and ICU LOS” value was “reduced, but not significantly altered”; the intubation time result is “trended to decrease”.
